Assay results as given in patent US20060110456A1, “Method for biocidal and/or biostatic treatment and compositions therefor” (NATIONAL UNIVERSITY OF SINGAPORE, priority 2004, published 2006).
Entries after “also recorded” stand apart in the source; their conditions may differ. Structures can show the parent of a compound that is named as a salt.

Experiments:
[1] = in words; cited from earlier work
Bugula neritina larvae = assay: Bioassay against bryozoan larvae; type: in vivo; details: crude rank, best (1) to worst (8)
Method: Bugula neritina (Phylum Bryozoa, Class Gymnolaemata, Order Cheilostomatida) is a cosmopolitan species of bryozoan, commonly found in most marine fouling communities. The larvae are brooded in ovicells found on the stem of the colonies. When released, the larva will settle quickly on most surfaces, within a few minutes. At 24° C., the settled larvae forms the one-cell ancestrula, and after 48 hours, the lophophore has developed and extended for feeding.
Adult colonies of Bugula neritina were collected from fouling communities growing on the submerged pontoons on a floating fish farm located off Changi, Singapore. Adult animals were maintained in the open-circulation aquarium at St John's island marine laboratory, Singapore. The adults were kept in total darkness for 24 hours. On exposure to light, larvae were released after half an hour. […] Because the larvae will settle quickly, larvae were pipetted directly into test wells in 1 ml of seawater using a graduated glass pipette.
4 replicates were done for each treatment. After 24 hours, larvae were scored as settled, swimming or dead/deformed. The assay plates were usually kept for another 24 hours and checked again, to ascertain that the settled larvae had developed into viable colonies with lophophores. Two trials were repeated for each compound.
Bioassays were carried out using the method described above, in July 2003 during the peak spawning season for Bugula.

[2] = system: hard fouling (barnacles, serpulids, spirorbids); assay: Field testing of coated rods; type: in vivo; parameters: Total hard fouling, difference in mean cover (%), drug vs control / Barnacles, difference in mean cover (%), drug vs control: tested at 25 µg/ml of coating; Serpulids, difference in mean cover (%), drug vs control: tested at 25 µg/ml of coating mix; details: for Overall performance in field assay: crude rank, best (1) to worst (8); for Barnacles, difference in mean cover (%), drug vs VC50 / Serpulids, difference in mean cover (%), drug vs VC50 / Spirorbids, difference in mean cover (%), drug vs VC50 / Total hard fouling, difference in mean cover (%), drug vs VC50: drug + VC50 rods vs VC50 control; for Barnacles, difference in mean cover (%), drug vs control / Serpulids, difference in mean cover (%), drug vs control / Spirorbids, difference in mean cover (%), drug vs control / Total hard fouling, difference in mean cover (%), drug vs control: drug + VC50 rods vs uncoated blank control; for Barnacles Mean cover (%) / Serpulids Mean cover (%) / Spirorbids Mean cover (%) / Total hard fouling Mean cover (%): rods coated with drug + VC50, field test; for Total hard fouling Mean cover (%): percentage cover within 6 mm×50 mm transect
Method: Fouling on rods occurs more rapidly than on flat panels, enabling rapid assessment of the performance of coatings.
6 mm diameter glass rods were cut to 150 mm length and prepared prior to coating by baking in a furnace at 150° C. for 24 hours and then cooling in a dessicator.
All pharmaceuticals were obtained in commercially available form. All tablets were reduced to fine powder with a mortar and pestle, and capsules were opened to extract the contents. The amount of drug powder required to attain the desired concentrations for all tests was calculated from product dosage information and then measured by weight on a high-resolution electronic balance. This was added to the coating and mixed thoroughly prior to application to obtain the concentration of 25 ug active ingredient per ml of coating mix.
The commercial antifouling product used to benchmark field experiments was VC Offshore with Teflon® manufactured by International Coatings.
For our experiments, a reduced copper coating (“VC50”) was prepared by mixing approximately 20 g of #YBA779 into 100 ml of #YBA707. The prepared coating was then allowed to stand so that bubbles from the mixing process dissipated. 15 ml centrifuge tubes were filled with 10 mls of prepared coating. Prepared glass rods were then immersed in the coating to a height of 100 mm and then suspended on a frame to air dry until coating cured.
Five replicate rods were tested for every experimental treatment, including controls. Two sets of controls were used, an uncoated blank control and a VC50 control without pharmaceutical additives. Rod were randomly arrayed on plastic vexar mesh attached to PVC frames and suspended at a depth of 10 cm from the water surface. […] Rods were examined visually weekly for the duration of testing, which typically lasts between 6 to 10 weeks. All fouling was scored as percentage cover of each category within a 6 mm×50 mm transect on each rod.

[3] = system: marine bacteria (ten strains); assay: Bio-adhesion assay (crystal violet microplate); type: cell-based, marine bacteria isolated from Singapore fouling communities; details: for Effect of drugs on adhesion of bacteria: 50 μl of 125 μg ml^−1 drug + 200 μl bacteria, 2 hours
Method: The effect of pharmaceuticals on bacterial adhesion was analyzed using a modified microplate method adapted from Shea and Williamson (1990). This method consists of staining the attached bacteria with crystal violet, releasing the stain with sodium desoxycholate, and measuring the resulting absorbance of the crystal violet. The absorbance is proportional to the degree of bacterial adhesion to the surface.
Ten strains of bacteria (strain numbers 1, 4, 9, 14, 18, 20, 27, 28, 29 and 30) were chosen for this study. Flat bottom non-tissue culture treated polystyrene (hydrophobic, Falcon #351172) (referred to as polystyrene) and flat bottom tissue culture treated polystyrene (hydrophilic, Falcon #353072) microplates were used in the analyses. These two types of plates were chosen because they were sterile and offered two different kinds of surfaces to determine the adhesion preferences of the bacteria. Each test was done in duplicate. For the control and blank wells, 50 μl of sterile deionized water were added. For those wells that were to contain drugs, 50 μl of drugs at concentration of 125 μg ml^−1 were added. Then 200 μl of bacteria suspension in sterile seawater, whose absorbance had been adjusted to 0.6 at 600 nm using a spectrophotometer (Beckman), were added. Blanks contained 200 μl of sterile seawater.
The bacteria in suspension were allowed to attach for 2 hours at 28° C. Unattached cells were removed by pipetting out almost all trace of liquid and rinsed three times with 300 μl of sterile seawater each time. The attached cells were stained with 200 μl of crystal violet solution (0.1% w/v) in each well for 5 min. After removing the stain by pipetting, the wells were rinsed twice with 300 μl of sterile deionized water each time. Sodium desoxycholate (200 μl) solution (2% w/v) was then added to each well to extract the crystal violet from the stained cells for 10 min. The absorbance of the extracted solution was read at 590 nm using a microplate reader (Sunrise, Tecan, Switzerland).
The data were analyzed using T-test (Two-sample assuming unequal variances) to determine the significance of the absorbance values of each bacterial strain versus the blanks to determine whether there was adhesion, i.e. increase in absorbance. Each drug effect on adhesion was analyzed by comparing the absorbance of each bacterial strain minus the control blank versus bacteria in presence of drug minus the drug control. When the data is significant, there are bacterial cells attached to the surface in the control but in the presence of drugs, there is no attachment.

[4] = drug at 25 ug per ml of VC50 coating
[5] = strain 4 (Bacillus), hydrophobic surface (untreated polystyrene)
[6] = strain 9 (Bacillus), hydrophobic surface (untreated polystyrene)
[7] = strain 20, hydrophobic surface (untreated polystyrene)
[8] = strain 27, hydrophobic surface (untreated polystyrene)
[9] = strain 28, hydrophobic surface (untreated polystyrene)
[10] = strain 30, hydrophilic surface (tissue culture treated polystyrene)

SMILES | Solubility [1] | Prevention of settlement of Bugula larvae (Bugula neritina larvae) | Performance against spirorbid polychaetes ([2]; coated rods, in words) | Overall performance in field assay [2] | Barnacles, difference in mean cover (%), drug vs VC50 [2] [%] | Serpulids, difference in mean cover (%), drug vs VC50 [2] | Spirorbids, difference in mean cover (%), drug vs VC50 [2] | Total hard fouling, difference in mean cover (%), drug vs VC50 [2] [%] | Barnacles, difference in mean cover (%), drug vs control [2] [%] | Serpulids, difference in mean cover (%), drug vs control [2] [%] | Spirorbids, difference in mean cover (%), drug vs control [2] | Total hard fouling, difference in mean cover (%), drug vs control [2] [%] | Barnacles Mean cover (%) [2] [%] | Serpulids Mean cover (%) [2] [%] | Spirorbids Mean cover (%) [2] [%] | Total hard fouling Mean cover (%) [2] [%] | Effect of drugs on adhesion of bacteria [3, 5] | Effect of drugs on adhesion of bacteria [3, 6] | Effect of drugs on adhesion of bacteria [3, 7] | Effect of drugs on adhesion of bacteria [3, 8] | further results
Cc1nccn1CC1CCc2c(c3ccccc3n2C)C1=O (stereo not drawn) [ZFN, ondansetron hydrochloride] | soluble in saline and water | 8 | exclude spirorbid settlement | 2 | −26.33 | 0% | −18.66% | −45 | -89.3 | −1.66 | +3% | −88 | 3.67 | 1.67 | 4.67 | 10 | ** (** p < 0.01) | *** (*** p < 0.005) | ** (** p < 0.01) | *** (*** p < 0.005) | Total hard fouling, mean cover ([2]; coated rods, 25 ug active ingredient per ml of VC50 coating): 10%; Less spirorbid cover than VC50 [2, 4]: 18.7%; Reduction in barnacle cover compared to VC50 [2, 4]: 26.3%; Effect of addition of drug on antifouling performance of VC50 coating (total hard fouling) ([2]; drug at 25 ug per ml of VC50 coating, in words, hydrochloride): increased the antifouling properties of VC50 coating significantly; also recorded: significantly improved the performance of VC50 coating; Effect on bacterial adhesion ([3]; polystyrene or tissue culture surface as named in the value, hydrochloride): prevented biofilm formation for almost all strains in the polystyrene surface; also recorded: increased cell adhesion in the tissue culture surface for strain 30; Effect of drugs on adhesion of bacteria ([3]; strain 14 (Vibrio), hydrophobic surface (untreated polystyrene)): * (Significantly less adhesion observed: * p < 0.05); Effect of drugs on adhesion of bacteria ([3]; strain 18 (Microbacterium), hydrophobic surface (untreated polystyrene)): * (Significantly less adhesion observed: * p < 0.05); Effect of drugs on adhesion of bacteria [3, 9]: *** (*** p < 0.005); Effect of drugs on adhesion of bacteria ([3]; strain 29, hydrophobic surface (untreated polystyrene)): * (Significantly less adhesion observed: * p < 0.05); Effect of drugs on adhesion of bacteria [3, 10]: * (Significantly less adhesion observed: * p < 0.05); Effect of drugs on adhesion of bacteria ([3]; strain 30, hydrophobic surface (untreated polystyrene)): * (Significantly less adhesion observed: * p < 0.05)
CN[C@H]1CC[C@@H](c2ccc(Cl)c(Cl)c2)c2ccccc21.Cl [ZLT, sertraline hydrochloride] | slightly soluble in water | 1 | higher cover of serpulid and spirorbid polychaetes compared to VC50 alone | 8 | −11.67 | +1.66% | +6.67% | −3.33 | −74.67 | 0 | +28.33% | −46.33 | 18.33 | 3.33 | 30 | 51.67 | *** (*** p < 0.005) | * (Significantly less adhesion observed: * p < 0.05) | *** (*** p < 0.005) | *** (*** p < 0.005) | Performance against serpulid polychaetes ([2]; coated rods, in words): higher cover of serpulid and spirorbid polychaetes compared to VC50 alone; Reduction of total hard fouling cover compared to VC50 alone [2, 4]: 3.3%; Effect of addition of drug on antifouling performance of VC50 coating (total hard fouling) ([2]; drug at 25 ug per ml of VC50 coating, in words): did not significantly improve the antifouling performance of VC50; Effect of drugs on adhesion of bacteria ([3]; strain 1 (Rhodovulum), hydrophobic surface (untreated polystyrene)): *** (*** p < 0.005); Effect of drugs on adhesion of bacteria [3, 9]: *** (*** p < 0.005); Effect of drugs on adhesion of bacteria [3, 10]: *** (*** p < 0.005)
